Here are results for six cell lines from the supplement of paper PMC10307832.

Common to all, as to assay: relative viability (nuclei count vs DMSO), 5 days (fraction); higher = more cells survive
Compound in experiment [1]: CN(C)C/C=C/C(=O)Nc1cc2c(Nc3ccc(F)c(Cl)c3)ncnc2cc1O[C@H]1CCOC1 [Afatinib] + CCNC(=O)c1noc(-c2cc(C(C)C)c(O)cc2O)c1-c1ccc(CN2CCOCC2)cc1 [Luminespib] (partner 0.01 µM)
In short, it runs like this: (§1)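 Values are medians from duplicate plates. Each reflects relative viability, defined as the nuclei count of treated wells over that of vehicle wells. Lung cancer cell lines in 1536-well plates were pin-tool dosed one day after seeding with one drug alone or with a fixed anchor-drug dose plus five library-drug doses (not always all listed) in √10 steps, then fixed, stained and imaged at 4× after 5 days.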

Compound in experiment [2]: CN(C)C/C=C/C(=O)Nc1cc2c(Nc3ccc(F)c(Cl)c3)ncnc2cc1O[C@H]1CCOC1 [Afatinib] + COc1cc2c(Oc3ccc(NC(=O)C4(C(=O)Nc5ccc(F)cc5)CC4)cc3F)ccnc2cc1OCCCN1CCOCC1 [Foretinib] (partner 0.25 µM)
In short, it runs like this: as §1

Compound in experiment [3]: CN(C)C/C=C/C(=O)Nc1cc2c(Nc3ccc(F)c(Cl)c3)ncnc2cc1O[C@H]1CCOC1 [Afatinib] + Cc1nc(Nc2ncc(C(=O)Nc3c(C)cccc3Cl)s2)cc(N2CCN(CCO)CC2)n1 [Dasatinib] (partner 0.075 µM)
In short, it runs like this: as §1

Compound in experiment [4]: CN(C)C/C=C/C(=O)Nc1cc2c(Nc3ccc(F)c(Cl)c3)ncnc2cc1O[C@H]1CCOC1 [Afatinib] + Nc1ncn([C@H]2C[C@H](O)[C@@H](CO)O2)c(=O)n1 [Decitabine] (partner 2 µM)
In short, it runs like this: as §1

NCI-H2126: the relative viability worked out at 0.958 in experiment [1] (first compound 0.005 µM); 0.861 in experiment [1] (first compound 0.01581 µM); 0.796 in experiment [1] (first compound 0.05 µM); 0.681 in experiment [1] (first compound 0.1581 µM); 0.718 in experiment [1] (first compound 0.5 µM); 1.03 in experiment [2] (first compound 0.005 µM). In addition, the relative viability is 1.19 in experiment [2] (first compound 0.01581 µM); 1.08 in experiment [2] (first compound 0.05 µM); 0.729 in experiment [2] (first compound 0.1581 µM); 0.853 in experiment [2] (first compound 0.5 µM); 0.573 in experiment [3] (first compound 0.005 µM); 0.532 in experiment [3] (first compound 0.01581 µM). Further, the relative viability in experiment [3] (first compound 0.05 µM) was 0.439; in experiment [3] (first compound 0.1581 µM), 0.394; in experiment [3] (first compound 0.5 µM), 0.401; in experiment [4] (first compound 0.005 µM), 0.565; in experiment [4] (first compound 0.01581 µM), 0.519; in experiment [4] (first compound 0.05 µM) it was 0.595. Also, the relative viability in experiment [4] (first compound 0.1581 µM) was found to be 0.502; in experiment [4] (first compound 0.5 µM) it was 0.425.

Consider NCI-H2170, for which the relative viability in experiment [1] (first compound 0.005 µM) worked out at 0.831; in experiment [1] (first compound 0.01581 µM), 0.671; in experiment [1] (first compound 0.05 µM), 0.449; in experiment [1] (first compound 0.1581 µM), 0.163; in experiment [1] (first compound 0.5 µM), 0.231; in experiment [2] (first compound 0.005 µM), 0.962. The relative viability in experiment [2] (first compound 0.01581 µM) came out at 1.01; in experiment [2] (first compound 0.05 µM) it was 0.906; in experiment [2] (first compound 0.1581 µM), 0.369; in experiment [2] (first compound 0.5 µM), 0.294; in experiment [3] (first compound 0.005 µM) it was 0.352; in experiment [3] (first compound 0.01581 µM), 0.281. In addition, the relative viability in experiment [3] (first compound 0.05 µM) amounted to 0.157; in experiment [3] (first compound 0.1581 µM) it was 0.131; in experiment [3] (first compound 0.5 µM), 0.155; in experiment [4] (first compound 0.005 µM), 0.459; in experiment [4] (first compound 0.01581 µM), 0.469; in experiment [4] (first compound 0.05 µM), 0.405. Also, the results for the relative viability in experiment [4] (first compound 0.1581 µM) and in experiment [4] (first compound 0.5 µM) were 0.176 and 0.2, respectively.

For NCI-H2342, the relative viability turned out to be 0.713 in experiment [1] (first compound 0.005 µM); 0.648 in experiment [1] (first compound 0.01581 µM); 0.699 in experiment [1] (first compound 0.05 µM); 0.627 in experiment [1] (first compound 0.1581 µM); 0.583 in experiment [1] (first compound 0.5 µM); 0.892 in experiment [2] (first compound 0.005 µM). Moreover, the relative viability came out at 0.895 in experiment [2] (first compound 0.01581 µM); 0.856 in experiment [2] (first compound 0.05 µM); 0.743 in experiment [2] (first compound 0.1581 µM); 0.774 in experiment [2] (first compound 0.5 µM); 0.315 in experiment [3] (first compound 0.005 µM); 0.281 in experiment [3] (first compound 0.01581 µM). Further, the relative viability in experiment [3] (first compound 0.05 µM) came out at 0.295; in experiment [3] (first compound 0.1581 µM) it was 0.305; in experiment [3] (first compound 0.5 µM), 0.297; in experiment [4] (first compound 0.005 µM), 0.706; in experiment [4] (first compound 0.01581 µM), 0.698; in experiment [4] (first compound 0.05 µM), 0.718. Moreover, the relative viability in experiment [4] (first compound 0.1581 µM) was found to be 0.569; in experiment [4] (first compound 0.5 µM), 0.573.

Regarding NCI-H2347, the relative viability in experiment [1] (first compound 0.005 µM) is 0.295; in experiment [1] (first compound 0.01581 µM), 0.352; in experiment [1] (first compound 0.05 µM), 0.555; in experiment [1] (first compound 0.1581 µM) it was 0.404; in experiment [1] (first compound 0.5 µM), 0.316; in experiment [2] (first compound 0.005 µM), 1.08. The relative viability in experiment [2] (first compound 0.01581 µM) is 0.842; in experiment [2] (first compound 0.05 µM), 1.03; in experiment [2] (first compound 0.1581 µM), 0.899; in experiment [2] (first compound 0.5 µM), 0.518; in experiment [3] (first compound 0.005 µM) it was 0.34; in experiment [3] (first compound 0.01581 µM), 0.318. Besides, the relative viability in experiment [3] (first compound 0.05 µM) turned out to be 0.453; in experiment [3] (first compound 0.1581 µM) it was 0.269; in experiment [3] (first compound 0.5 µM) it was 0.288; in experiment [4] (first compound 0.005 µM), 0.602; in experiment [4] (first compound 0.01581 µM), 0.654; in experiment [4] (first compound 0.05 µM) it was 0.626. Also, the relative viability in experiment [4] (first compound 0.1581 µM) and in experiment [4] (first compound 0.5 µM) was 0.592 in each case.

Turning to NCI-H2405, the relative viability in experiment [1] (first compound 0.005 µM) stood at 0.578; in experiment [1] (first compound 0.01581 µM), 0.695; in experiment [1] (first compound 0.05 µM), 0.648; in experiment [1] (first compound 0.1581 µM) it was 0.388; in experiment [1] (first compound 0.5 µM), 0.441; in experiment [2] (first compound 0.005 µM), 1.07. For the same cell line, the relative viability was determined as 1.02 in experiment [2] (first compound 0.01581 µM); 1.05 in experiment [2] (first compound 0.05 µM); 0.978 in experiment [2] (first compound 0.1581 µM); 1.08 in experiment [2] (first compound 0.5 µM); 0.243 in experiment [3] (first compound 0.005 µM); 0.201 in experiment [3] (first compound 0.01581 µM). The relative viability in experiment [3] (first compound 0.05 µM) was 0.207; in experiment [3] (first compound 0.1581 µM), 0.219; in experiment [3] (first compound 0.5 µM), 0.196; in experiment [4] (first compound 0.005 µM) it was 0.716; in experiment [4] (first compound 0.01581 µM), 0.764; in experiment [4] (first compound 0.05 µM) it was 0.703. In addition, the relative viability in experiment [4] (first compound 0.1581 µM) turned out to be 0.642; in experiment [4] (first compound 0.5 µM), 0.656.

NCI-H3122: the relative viability in experiment [1] (first compound 0.005 µM) stood at 0.103; in experiment [1] (first compound 0.01581 µM), 0.0816; in experiment [1] (first compound 0.05 µM) it was 0.0898; in experiment [1] (first compound 0.1581 µM), 0.0996; in experiment [1] (first compound 0.5 µM), 0.0859; in experiment [2] (first compound 0.005 µM) it was 0.924. In addition, the relative viability in experiment [2] (first compound 0.01581 µM) was found to be 0.982; in experiment [2] (first compound 0.05 µM), 0.949; in experiment [2] (first compound 0.1581 µM), 0.906; in experiment [2] (first compound 0.5 µM), 0.938; in experiment [3] (first compound 0.005 µM), 0.95; in experiment [3] (first compound 0.01581 µM), 0.778. The relative viability was found to be 0.675 in experiment [3] (first compound 0.05 µM); 0.739 in experiment [3] (first compound 0.1581 µM); 0.553 in experiment [3] (first compound 0.5 µM); 0.38 in experiment [4] (first compound 0.005 µM); 0.439 in experiment [4] (first compound 0.01581 µM); 0.424 in experiment [4] (first compound 0.05 µM). The relative viability stood at 0.433 in experiment [4] (first compound 0.1581 µM) and 0.418 in experiment [4] (first compound 0.5 µM).
